Test results: ChEMBL document CHEMBL3352002, “Discovery of diethyl 2,5-diaminothiophene-3,4-dicarboxylate derivatives as potent anticancer and antimicrobial agents and screening of anti-diabetic activity: synthesis and in vitro biological evaluation. Part 1” (Eur J Med Chem, 2014); call rule not given here

Key:
T47D = experiment: Anticancer activity against human T47D cells assessed as inhibition of tumor cell proliferation after 48 hrs by MTT assay; type: functional, cell-based
Ishikawa = experiment: Anticancer activity against human Ishikawa cells assessed as inhibition of tumor cell proliferation after 48 hrs by MTT assay; type: functional, cell-based
MCF7 = experiment: Anticancer activity against human MCF7 cells assessed as inhibition of tumor cell proliferation after 48 hrs by MTT assay; type: functional, cell-based; settings: MCF7, 48 h
Escherichia coli = experiment: Antimicrobial activity against Escherichia coli ATCC 11229 assessed as inhibition zone after 24 hrs by agar well diffusion method; type: functional; note: test concentration or dose not given here
Candida albicans = experiment: Antimicrobial activity against Candida albicans ATCC 10231 assessed as inhibition zone after 24 hrs by agar well diffusion method; type: functional; note: test concentration or dose not given here
[1] = biological target: T1, Tyrosine-protein phosphatase non-receptor type 1 (Homo sapiens, UniProt P18031); experiment: Inhibition of PTP-1B (unknown origin) using pNPP substrate measured after 30 mins
T1 sequence (P18031 whole entry): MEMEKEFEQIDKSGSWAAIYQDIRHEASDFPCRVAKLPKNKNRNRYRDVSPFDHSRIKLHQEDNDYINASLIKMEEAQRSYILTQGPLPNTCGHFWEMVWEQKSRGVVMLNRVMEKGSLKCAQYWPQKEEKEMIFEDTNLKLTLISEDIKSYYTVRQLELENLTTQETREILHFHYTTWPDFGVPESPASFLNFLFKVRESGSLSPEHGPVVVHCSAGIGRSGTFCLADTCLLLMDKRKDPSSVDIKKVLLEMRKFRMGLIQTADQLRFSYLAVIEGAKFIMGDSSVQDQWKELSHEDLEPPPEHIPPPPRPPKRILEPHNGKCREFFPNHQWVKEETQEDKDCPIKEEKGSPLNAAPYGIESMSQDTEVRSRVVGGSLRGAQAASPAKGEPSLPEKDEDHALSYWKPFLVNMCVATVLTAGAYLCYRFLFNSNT

HeLa = experiment: Anticancer activity against human HeLa cells assessed as inhibition of tumor cell proliferation after 48 hrs by MTT assay; type: functional, cell-based
Staphylococcus aureus = experiment: Antimicrobial activity against Staphylococcus aureus ATCC 6538 assessed as inhibition zone after 24 hrs by agar well diffusion method; type: functional; note: test concentration or dose not given here

| Compound | IC50 (T47D) | IC50 (MCF7) | IC50 [1] | IC50 (HeLa) | IC50 ([1]; read-out: IC50) | IC50 (Ishikawa) | diameter of the inhibition zone (DIZ) (Escherichia coli) | diameter of the inhibition zone (DIZ) (Candida albicans) | diameter of the inhibition zone (DIZ) (Staphylococcus aureus) |
| --- | --- | --- | --- | --- | --- | --- | --- | --- | --- |
| CCOC(=O)c1c(N)sc(/N=C/c2ccccc2)c1C(=O)OCC | 30.3 µM | 6.1 µM | Not Active | 31.2 µM |  | 37.9 µM | <5.5 mm | 8 mm | 9 mm |
| CCOC(=O)c1c(N)sc(/N=C/c2ccc(F)cc2)c1C(=O)OCC | 22.5 µM | 22.5 µM | Not Active | 30.8 µM |  | 32.1 µM | <5.5 mm | 8 mm | 10 mm |
| CCOC(=O)c1c(N)sc(/N=C/c2ccc(OC)cc2)c1C(=O)OCC | 31.9 µM | 16.2 µM | Not Active | 189 µM |  | 108 µM | <5.5 mm | 9 mm | 9 mm |
| CCOC(=O)c1c(N)sc(/N=C/c2ccc(C)cc2)c1C(=O)OCC | 37.2 µM | 8.9 µM | Not Active | 41.9 µM |  | 52.5 µM | <5.5 mm | 8 mm | 10 mm |
| CCOC(=O)c1c(N)sc(/N=C/c2ccc(N(C)C)cc2)c1C(=O)OCC | 16.7 µM | 5.7 µM |  | 131 µM | 7.32 µM | 73 µM | <5.5 mm | 8 mm | 11.5 mm |
| CCOC(=O)c1c(N)sc(/N=C/c2ccc([N+](=O)[O-])o2)c1C(=O)OCC | 16 µM | 2.4 µM |  | 4.7 µM | 7.12 µM | 7.6 µM | 16 mm | >22 mm | 22 mm |
| C[C@@H]1[C@H](O)[C@@H](C)/C=C/C=C/C=C/C=C/C=C/C=C/C=C/[C@H](O[C@@H]2O[C@H](C)[C@@H](O)[C@H](N)[C@@H]2O)C[C@@H]2O[C@](O)(C[C@@H](O)C[C@@H](O)[C@H](O)CC[C@@H](O)C[C@@H](O)CC(=O)O[C@H]1C)C[C@H](O)[C@H]2C(=O)O [AMPHOTERICIN B] |  |  |  |  |  |  |  |  | 15 mm |
| CC1(C)S[C@@H]2[C@H](NC(=O)[C@H](N)c3ccccc3)C(=O)N2[C@H]1C(=O)O [AMPICILLIN] |  |  |  |  |  |  | 19 mm | 14 mm |  |
| COc1cccc2c1C(=O)c1c(O)c3c(c(O)c1C2=O)C[C@@](O)(C(=O)CO)C[C@@H]3O[C@H]1C[C@H](N)[C@H](O)[C@H](C)O1 [DOXORUBICIN] | 15.5 µM | 6.75 µM |  | 7.04 µM |  | 9.02 µM |  |  |  |

More lines, main results first:

| IC50 (T47D) | IC50 (MCF7) | IC50 [1] | IC50 (HeLa) | IC50 ([1]; read-out: IC50) | Compound | IC50 (Ishikawa) | diameter of the inhibition zone (DIZ) (Escherichia coli) | diameter of the inhibition zone (DIZ) (Candida albicans) | diameter of the inhibition zone (DIZ) (Staphylococcus aureus) |
| --- | --- | --- | --- | --- | --- | --- | --- | --- | --- |
| 11.6 µM | 18.6 µM | Not Active | 40.3 µM |  | CCOC(=O)c1c(N)sc(N)c1C(=O)OCC | 46.9 µM | <5.5 mm | <5.5 mm | 10 mm |
| 2.3 µM | 1.3 µM |  | 14.1 µM | 6.43 µM | CCOC(=O)c1c(N)sc(/N=C/c2ccc([N+](=O)[O-])cc2)c1C(=O)OCC | 141 µM | <5.5 mm | <5.5 mm | 8.5 mm |
| 12.1 µM | 6.8 µM | Not Active | 25.2 µM |  | CCOC(=O)c1c(N)sc(/N=C/c2ccc(Cl)cc2)c1C(=O)OCC | 27.1 µM | <5.5 mm | <5.5 mm | <5.5 mm |
| 13.2 µM | 12.5 µM |  | 25.9 µM | 6.54 µM | CCOC(=O)c1c(N)sc(/N=C/c2ccc(Br)cc2)c1C(=O)OCC | 46.1 µM | <5.5 mm | <5.5 mm | <5.5 mm |
| 14.9 µM | 62.2 µM | Not Active | 46.7 µM |  | CCOC(=O)c1c(N)sc(/N=C/c2ccco2)c1C(=O)OCC | 69.3 µM | <5.5 mm | <5.5 mm | 10.5 mm |
| 7.1 µM | 26.1 µM |  | 21.3 µM | 14.8 µM | CCOC(=O)c1c(N)sc(/N=C/c2cccs2)c1C(=O)OCC | 39.8 µM | <5.5 mm | <5.5 mm | 10 mm |
| 8.6 µM | 92.2 µM | Not Active | 35.4 µM |  | CCOC(=O)c1c(N)sc(/N=C/c2ccncc2)c1C(=O)OCC | 119 µM | <5.5 mm | 7 mm | <5.5 mm |
